Each compound was assayed on S. mansoni schistosomulae (assay: Motility assay on schistosomulae (pixel displacement, relative to DMSO control)). Settings: Schistosoma mansoni, 120 h; schistosomulae, secondary screen, 24h exposure, read at D5, 1 µM; read-out: Fractional motility.
Format: cell-based, Schistosoma mansoni
Procedure: Puerto Rican strain Biomphalaria glabrata snails infected with S. mansoni were kindly provided by Dr. Fred Lewis (Biomedical Research Institute and BEI Resources, MD, USA). Schistosomulae were obtained by exposing six to eight weeks-old snails to continuous light for 2 h at 32 °C. The resulting suspension of cercaria was then mechanically transformed as described ([Lewis, 2001]) and cultured in Opti-MEM/antibiotics (Thermo Fisher Scientific, Waltham, MA) containing 100 μg/mL streptomycin and 100 units/ml penicillin supplemented with 5% fetal bovine serum (FBS; Thermo Fisher). Parasite cultures were incubated at 37 °C with 5% CO2 for at least 10 days with no apparent loss of viability. At this point, animals with internal dark granulations and with no observable body contraction/relaxation cycles were considered dead.
(§1) Schistosomulae (200/well) and adult parasites (unpaired worms) were maintained in 300 μL OPTI-MEM with 5% dialyzed FBS (without antibiotics) and exposed to compounds at 1 and 10 μM for 24 h. A kinetic assay consisting of 1, 3, 6 and 12 h incubation times was performed on selected hits by motility monitoring using a stereo microscope (SMZ1270, Nikon) for adults and an inverted microscope for schistosomulae (eclipse TE2000-U, Nikon) connected to a monochrome camera (DS-Qi2, Nikon) for image acquisition. Images were recorded at a rate of 10 frames/s for a period of 1 min and videos were analyzed using ImageJ software (version 1.41, NIH, USA). Parasite movement quantification and data analysis protocols were applied using the pixel displacement method ([Patocka et al., 2014]; [Rashid et al., 2015]) and compared to control parasites treated with DMSO. Parasites were then washed several times in Opti-MEM, 5% FBS and incubated up to an additional three days (schistosomulae) or five days (adult worms) at 37 °C, 5% CO2 and motility was recorded as described above.

Row | SMILES | activity at 1 µM [%]
1 | O=C(C1CCCCC1)N1CC(=O)N2CCc3ccccc3C2C1 (stereo not drawn) [PZQ, praziquantel] | -29

Same assay, conditions: Schistosoma mansoni; schistosomulae, secondary screen, 24h exposure, read at D1, 1 µM; read-out: Fractional motility

Row | SMILES | activity at 1 µM [%]
2 | O=C(C1CCCCC1)N1CC(=O)N2CCc3ccccc3C2C1 (stereo not drawn) [PZQ, praziquantel] | -30

Same assay, conditions: Selleckchem customized library secondary screen, 24h, D1, 1 µM

Row | SMILES | Fractional motility
3 | O=c1[nH]c2ccc(Cl)cc2c(N[C@@H]2CN3CCC2CC3)c1-c1nc2ccccc2[nH]1 [CHIR-124] | 6.60

Same assay, conditions: Selleckchem customized library secondary screen, 24h, D1, 10 µM

Row | SMILES | Fractional motility
4 | O=c1[nH]c2ccc(Cl)cc2c(N[C@@H]2CN3CCC2CC3)c1-c1nc2ccccc2[nH]1 [CHIR-124] | 100.65

Same assay, conditions: schistosomulae, 1h exposure, read at D1, 10 µM

Row | Fractional motility | SMILES
5 | 1.70 | COc1cc(N2CCC(N)CC2)ccc1Nc1ncc(Cl)c(-c2c[nH]c3ccccc23)n1 [AZD3463]

Same assay, conditions: schistosomulae, 1h exposure, read at D5, 10 µM

Row | Fractional motility | SMILES
6 | -0.84 | COc1cc(N2CCC(N)CC2)ccc1Nc1ncc(Cl)c(-c2c[nH]c3ccccc23)n1 [AZD3463]

Same assay, conditions: schistosomulae, 3h exposure, read at D1, 10 µM

Row | Fractional motility | SMILES
7 | 5.60 | COc1cc(N2CCC(N)CC2)ccc1Nc1ncc(Cl)c(-c2c[nH]c3ccccc23)n1 [AZD3463]

Same assay, conditions: schistosomulae, 3h exposure, read at D5, 10 µM

Row | Fractional motility | SMILES
8 | -0.68 | COc1cc(N2CCC(N)CC2)ccc1Nc1ncc(Cl)c(-c2c[nH]c3ccccc23)n1 [AZD3463]

Same assay, conditions: schistosomulae, 6h exposure, read at D1, 10 µM

Row | Fractional motility | SMILES
9 | 2.17 | COc1cc(N2CCC(N)CC2)ccc1Nc1ncc(Cl)c(-c2c[nH]c3ccccc23)n1 [AZD3463]

Same assay, conditions: schistosomulae, 6h exposure, read at D5, 10 µM

Row | Fractional motility | SMILES
10 | -0.70 | COc1cc(N2CCC(N)CC2)ccc1Nc1ncc(Cl)c(-c2c[nH]c3ccccc23)n1 [AZD3463]

Same assay, conditions: schistosomulae, secondary screen, 24h exposure, read at D1, 1 µM

Row | Fractional motility | SMILES
11 | 0.62 | COc1cc(N2CCC(N)CC2)ccc1Nc1ncc(Cl)c(-c2c[nH]c3ccccc23)n1 [AZD3463]

Same assay, conditions: schistosomulae, secondary screen, 24h exposure, read at D1, 10 µM

Row | SMILES | Fractional motility
12 | COc1cc(N2CCC(N)CC2)ccc1Nc1ncc(Cl)c(-c2c[nH]c3ccccc23)n1 [AZD3463] | 1.68
13 | O=C(C1CCCCC1)N1CC(=O)N2CCc3ccccc3C2C1 (stereo not drawn) [PZQ, praziquantel] | -0.47

Same assay, conditions: schistosomulae, secondary screen, 24h exposure, read at D5, 1 µM

Row | Fractional motility | SMILES
14 | 0.15 | COc1cc(N2CCC(N)CC2)ccc1Nc1ncc(Cl)c(-c2c[nH]c3ccccc23)n1 [AZD3463]

Same assay, conditions: schistosomulae, secondary screen, 24h exposure, read at D5, 10 µM

Row | SMILES | Fractional motility
15 | COc1cc(N2CCC(N)CC2)ccc1Nc1ncc(Cl)c(-c2c[nH]c3ccccc23)n1 [AZD3463] | -0.81
16 | O=C(C1CCCCC1)N1CC(=O)N2CCc3ccccc3C2C1 (stereo not drawn) [PZQ, praziquantel] | -0.47

Each compound was assayed on S. mansoni schistosomulae (assay: Phenotypic primary screen assay on schistosomulae (phenotype; viability by methylene blue dye exclusion)). Settings: three-day-old schistosomulae, 10 μM, 24 h; calculated 5 days post compound exposure.
Format: cell-based, Schistosoma mansoni
Procedure: Puerto Rican strain Biomphalaria glabrata snails infected with S. mansoni were kindly provided by Dr. Fred Lewis (Biomedical Research Institute and BEI Resources, MD, USA). Schistosomulae were obtained by exposing six to eight weeks-old snails to continuous light for 2 h at 32 °C. […] At this point, animals with internal dark granulations and with no observable body contraction/relaxation cycles were considered dead.
Schistosomulae were monitored under a stereo microscope (SMZ1270, Nikon). Phenotypic observations were made by analyzing schistosomulae, 24 h after drug addition to assess any immediate effect and five days post-compound exposure to observe long-term impacts on both the movement and overall body shape in comparison to control animals exposed to DMSO only.

Row | SMILES | Viability (%)
17 | COc1cc(N2CCC(N)CC2)ccc1Nc1ncc(Cl)c(-c2c[nH]c3ccccc23)n1 [AZD3463] | 42,5%
18 | O=c1[nH]c2ccc(Cl)cc2c(N[C@@H]2CN3CCC2CC3)c1-c1nc2ccccc2[nH]1 [CHIR-124] | 77%

Same assay, conditions: three-day-old schistosomulae, 10 μM, 24 h; estimated 5 days post compound exposure

Row | SMILES | Phenotype
19 | COc1cc(N2CCC(N)CC2)ccc1Nc1ncc(Cl)c(-c2c[nH]c3ccccc23)n1 [AZD3463] | dark, granulated
20 | O=c1[nH]c2ccc(Cl)cc2c(N[C@@H]2CN3CCC2CC3)c1-c1nc2ccccc2[nH]1 [CHIR-124] | big

The compounds below were run on S. mansoni adult worms (assay: Motility assay on adult parasites (pixel displacement, relative to DMSO control)). Settings: adults, 10 μM, long-term after washout.
Format: cell-based, Schistosoma mansoni
Procedure: Adult parasites were collected from 40 day-old female CD1 mice (Charles River) previously inoculated by the tail infection method ([Lewis, 2001]). Six weeks post-infection, mice were sacrificed, and adult worms extracted after perfusion of in the hepatic portal vein and mesenteric venules ([Lewis, 2001]). Animal procedures were reviewed and approved by the Facility Animal Care Committee of McGill University (Protocol No. 3346) and were conducted in accordance with the guidelines of the Canadian Council on Animal Care.
as §1

Row | motility phenotype in words | SMILES
21 | Significant hypomotility | COc1cc(N2CCC(N)CC2)ccc1Nc1ncc(Cl)c(-c2c[nH]c3ccccc23)n1 [AZD3463]

Same assay, conditions: secondary screen, 10 μM, D1, Female adult worms

Row | SMILES | Fractional motility
22 | COc1cc(N2CCC(N)CC2)ccc1Nc1ncc(Cl)c(-c2c[nH]c3ccccc23)n1 [AZD3463] | -0.12
23 | O=C(C1CCCCC1)N1CC(=O)N2CCc3ccccc3C2C1 (stereo not drawn) [PZQ, praziquantel] | -0.96
24 | O=c1[nH]c2ccc(Cl)cc2c(N[C@@H]2CN3CCC2CC3)c1-c1nc2ccccc2[nH]1 [CHIR-124] | 4.53

Same assay, conditions: secondary screen, 10 μM, D1, Male adult worms

Row | SMILES | Fractional motility
25 | COc1cc(N2CCC(N)CC2)ccc1Nc1ncc(Cl)c(-c2c[nH]c3ccccc23)n1 [AZD3463] | 0.58
26 | O=C(C1CCCCC1)N1CC(=O)N2CCc3ccccc3C2C1 (stereo not drawn) [PZQ, praziquantel] | -0.98
27 | O=c1[nH]c2ccc(Cl)cc2c(N[C@@H]2CN3CCC2CC3)c1-c1nc2ccccc2[nH]1 [CHIR-124] | 10.48

Same assay, conditions: secondary screen, 10 μM, D5, Female adult worms

Row | SMILES | Fractional motility
28 | COc1cc(N2CCC(N)CC2)ccc1Nc1ncc(Cl)c(-c2c[nH]c3ccccc23)n1 [AZD3463] | -0.93
29 | O=C(C1CCCCC1)N1CC(=O)N2CCc3ccccc3C2C1 (stereo not drawn) [PZQ, praziquantel] | -0.98
30 | O=c1[nH]c2ccc(Cl)cc2c(N[C@@H]2CN3CCC2CC3)c1-c1nc2ccccc2[nH]1 [CHIR-124] | -0.48

Same assay, conditions: secondary screen, 10 μM, D5, Male adult worms

Row | SMILES | Fractional motility
31 | COc1cc(N2CCC(N)CC2)ccc1Nc1ncc(Cl)c(-c2c[nH]c3ccccc23)n1 [AZD3463] | -0.57
32 | O=C(C1CCCCC1)N1CC(=O)N2CCc3ccccc3C2C1 (stereo not drawn) [PZQ, praziquantel] | -0.99
33 | O=c1[nH]c2ccc(Cl)cc2c(N[C@@H]2CN3CCC2CC3)c1-c1nc2ccccc2[nH]1 [CHIR-124] | -0.25

From article PMC7284125, “Identification of annotated bioactive molecules that impair motility of the blood fluke Schistosoma mansoni” (International Journal for Parasitology: Drugs and Drug …, 2020)
